Tests used:
[1] = Solid stability evaluation for 1/2/4 weeks; settings: for HPLC purity change after solid stability / form change after solid stability: all storage conditions;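 on all read-outs here: Solid-state physical and chemical stability tracked by XRPD for form, KF for water content, and HPLC for purity and assay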
Procedure: Type A/B were stored under the conditions of 60° C., 25° C./60% RH, 25° C./92.5% RH and 40° C./75% RH for 1/2/4 weeks for solid stability evaluation. Amorphous was stored under the conditions of 25° C./60% RH and 40° C./75% RH for 1/2/4 weeks for solid stability evaluation. The physical and chemical stability were evaluated by X-ray powder diffraction (XRPD), thermo gravimetric analysis (TGA)/Karl Fischer (KF), differential scanning calorimetry (DSC)/modulated differential I scanning calorimetry (mDSC), high performance liquid chromatography (HPLC) purity and assay, respectively.
XRPD, TGA, DSC and KF in this example are under the same conditions with those described in Example 2.
Agilent 1260 were utilized and detailed chromatographic conditions are listed in

DVS water uptake = assay type: physicochemical
Procedure: DVS was measured via a SMS (Surface Measurement Systems) DVS Intrinsic or Intrinsic Plus. The relative humidity at 25° C. were calibrated against deliquescence point of LiCl, Mg(NO3)2 and KCl.

[2] = Competitive slurry, inter-conversion of Type A and Type B; assay type: physicochemical
[3] = Polymorph characterization: form conversion on drying; assay type: physicochemical
Procedure: Using ABT-301 Type A (Sample name: ABT-301, CP ID: 826543-01-A) as starting material, a total of 100 polymorph screening experiments were performed, using methods of vapor-solution diffusion, vapor-solid diffusion, slow evaporation, slurry (RT and 50° C.), temperature cycling, slow cooling, anti-solvent addition and grinding.

SMILES: O=C(/C=C/c1ccc2c(c1)CCN2S(=O)(=O)c1ccccc1)NO [Type B, (E)-N-hydroxy-3-(1-(phenylsulfonyl)indolin-5-yl) acrylamide]
- Assay ([1]; 25° C./60% RH, 1 week): 97.8%
- Form (XRPD) ([1]; 25° C./60% RH, 1 week): Type B
- HPLC purity ([1]; 25° C./60% RH, 1 week): 99.85 Area %
- Assay ([1]; 25° C./60% RH, 2 weeks): 96.8%
- Form (XRPD) ([1]; 25° C./60% RH, 2 weeks): Type B
- HPLC purity ([1]; 25° C./60% RH, 2 weeks): 99.85 Area %
- Assay ([1]; 25° C./60% RH, 4 weeks): 98.2%
- Form (XRPD) ([1]; 25° C./60% RH, 4 weeks): Type B
- HPLC purity ([1]; 25° C./60% RH, 4 weeks): 99.86 Area %
- KF (water content) ([1]; 25° C./60% RH, 4 weeks): 2.0658%
- Assay ([1]; 40° C./75% RH, 1 week): 97.6%
- Form (XRPD) ([1]; 40° C./75% RH, 1 week): Type B
- HPLC purity ([1]; 40° C./75% RH, 1 week): 99.85 Area %
- Assay ([1]; 40° C./75% RH, 2 weeks): 97.1%
- Form (XRPD) ([1]; 40° C./75% RH, 2 weeks): Type B
- HPLC purity ([1]; 40° C./75% RH, 2 weeks): 99.84 Area %
- Assay ([1]; 40° C./75% RH, 4 weeks): 97.8%
- Form (XRPD) ([1]; 40° C./75% RH, 4 weeks): Type B
- HPLC purity ([1]; 40° C./75% RH, 4 weeks): 99.85 Area %
- KF (water content) ([1]; 40° C./75% RH, 4 weeks): 0.8491%
- Assay ([1]; 60° C., 1 week): 98.0%
- Form (XRPD) ([1]; 60° C., 1 week): Type B
- HPLC purity ([1]; 60° C., 1 week): 99.84 Area %
- Assay ([1]; 60° C., 2 weeks): 96.5%
- Form (XRPD) ([1]; 60° C., 2 weeks): Type B
- HPLC purity ([1]; 60° C., 2 weeks): 99.80 Area %
- Assay ([1]; 60° C., 4 weeks): 97.9%
- Form (XRPD) ([1]; 60° C., 4 weeks): Type B
- HPLC purity ([1]; 60° C., 4 weeks): 99.76 Area %
- KF (water content) ([1]; 60° C., 4 weeks): 1.9894%
- Assay ([1]; Initial): 96.8%
- Form (XRPD) ([1]; Initial): Type B
- HPLC purity ([1]; Initial): 99.85 Area %
- KF (water content) ([1]; Initial): 0.5387%
- Assay ([1]; […], 1 week): 97.9%
- Form (XRPD) ([1]; […], 1 week): Type B
- HPLC purity ([1]; […], 1 week): 99.85 Area %
- Assay ([1]; […], 2 weeks): 96.8%
- Form (XRPD) ([1]; […], 2 weeks): Type B
- HPLC purity ([1]; […], 2 weeks): 99.85 Area %
- Assay ([1]; […], 4 weeks): 98.1%
- Form (XRPD) ([1]; […], 4 weeks): Type B
- HPLC purity ([1]; […], 4 weeks): 99.85 Area %
- KF (water content) ([1]; […], 4 weeks): 1.8514%
- HPLC purity change after solid stability ([1]; 4 weeks): no form change, or obvious HPLC purity change
- form change after solid stability ([1]; 4 weeks): no form change
- water uptake (DVS) (DVS water uptake; 25° C./80% RH): 0.1039%
- form change after DVS test (XRPD) (DVS water uptake; after DVS test): no form change
- water activity at which the form was obtained in competitive slurry ([2]; t-Butanol and t-Butanol/H2O, RT, water activity calculated from KF by COSMOlogic): ≤ 0.17

SMILES: O=C(/C=C/c1ccc2c(c1)CCN2S(=O)(=O)c1ccccc1)NO [Amorphous, (E)-N-hydroxy-3-(1-(phenylsulfonyl)indolin-5-yl) acrylamide]
- Assay ([1]; 25° C./60% RH, 1 week): 91.3%
- Form (XRPD) ([1]; 25° C./60% RH, 1 week): Type A
- HPLC purity ([1]; 25° C./60% RH, 1 week): 99.71 Area %
- Assay ([1]; 25° C./60% RH, 2 weeks): 92.2%
- Form (XRPD) ([1]; 25° C./60% RH, 2 weeks): Type A
- HPLC purity ([1]; 25° C./60% RH, 2 weeks): 99.76 Area %
- Assay ([1]; 25° C./60% RH, 4 weeks): 90.7%
- Form (XRPD) ([1]; 25° C./60% RH, 4 weeks): Type A
- HPLC purity ([1]; 25° C./60% RH, 4 weeks): 99.81 Area %
- Assay ([1]; 40° C./75% RH, 1 week): 91.5%
- Form (XRPD) ([1]; 40° C./75% RH, 1 week): Type A
- HPLC purity ([1]; 40° C./75% RH, 1 week): 99.75 Area %
- Assay ([1]; 40° C./75% RH, 2 weeks): 92.1%
- Form (XRPD) ([1]; 40° C./75% RH, 2 weeks): Type A
- HPLC purity ([1]; 40° C./75% RH, 2 weeks): 99.78 Area %
- Assay ([1]; 40° C./75% RH, 4 weeks): 90.6%
- Form (XRPD) ([1]; 40° C./75% RH, 4 weeks): Type A
- HPLC purity ([1]; 40° C./75% RH, 4 weeks): 99.84 Area %
- Assay ([1]; Initial): 91.5%
- Form (XRPD) ([1]; Initial): Amorphous
- HPLC purity ([1]; Initial): 99.84 Area %
- HPLC purity change after solid stability ([1]; 4 weeks): no obvious HPLC purity change
- form change after solid stability ([1]; 4 weeks): converted to Type A

SMILES: O=C(/C=C/c1ccc2c(c1)CCN2S(=O)(=O)c1ccccc1)NO [Type P, (E)-N-hydroxy-3-(1-(phenylsulfonyl)indolin-5-yl) acrylamide]
- form conversion on drying ([3]; dried at RT overnight): The sample converted to Type A after dried at RT overnight.

SMILES: O=C(/C=C/c1ccc2c(c1)CCN2S(=O)(=O)c1ccccc1)NO [Type Q, (E)-N-hydroxy-3-(1-(phenylsulfonyl)indolin-5-yl) acrylamide]
- form conversion on drying ([3]; dried at RT in open air for 8 days and under vacuum for 16.5 hours): The sample converted to Type M after dried at RT in open

SMILES: O=C(/C=C/c1ccc2c(c1)CCN2S(=O)(=O)c1ccccc1)NO [Type A/Type B, (E)-N-hydroxy-3-(1-(phenylsulfonyl)indolin-5-yl) acrylamide]
- Result (form obtained, competitive slurry) ([2]; 2-MeTHF, 50° C., 2 days): Type B
- Result (form obtained, competitive slurry) ([2]; 2-MeTHF, RT, 2 days): Type B + P
- Result (form obtained, competitive slurry) ([2]; Acetone (aw~0), RT, 2 days): Type D
- Result (form obtained, competitive slurry) ([2]; Acetone/H2O (95:5, aw~0.4), RT, 1 day): Type D
- Result (form obtained, competitive slurry) ([2]; Acetone/H2O (605:395, aw~0.8), RT, 1 day): Type D
- Result (form obtained, competitive slurry) ([2]; Acetone/H2O (857:143, aw~0.6), RT, 1 day): Type D
- Result (form obtained, competitive slurry) ([2]; Acetone/H2O (986:14, aw~0.2), RT, 1 day): Type D
- Result (form obtained, competitive slurry) ([2]; H2O, RT, 1 day): Type A
- Result (form obtained, competitive slurry) ([2]; MIBK, 50° C., 2 days): Type B
- Result (form obtained, competitive slurry) ([2]; MIBK, RT, 2 days): Type O
- Result (form obtained, competitive slurry) ([2]; Toluene, 50° C., 8 days): Type B
- Result (form obtained, competitive slurry) ([2]; Toluene, RT, 1 day, without molecular sieve, KF 0.0250 wt %, water activity 0.32): Type A
- Result (form obtained, competitive slurry) ([2]; Toluene, RT, 2 days, with molecular sieve, KF 0.0072 wt %, water activity 0.11): Type B
- Result (form obtained, competitive slurry) ([2]; n-Heptane, 50° C., 8 days): Type B
- Result (form obtained, competitive slurry) ([2]; n-Heptane, RT, 1 day, without molecular sieve, KF 0.0049 wt %, water activity 0.29): Type A
- Result (form obtained, competitive slurry) ([2]; n-Heptane, RT, 2 days, with molecular sieve, KF 0.0003 wt %, water activity 0.02): Type B
- Result (form obtained, competitive slurry) ([2]; t-Butanol, RT, 1 day, water activity 0.06): Type B
- Result (form obtained, competitive slurry) ([2]; t-Butanol/H2O (886:121), RT, 3 days, water activity 0.88): Type A
- Result (form obtained, competitive slurry) ([2]; t-Butanol/H2O (909:10), RT, 1 day, water activity 0.17): Type B
- Result (form obtained, competitive slurry) ([2]; t-Butanol/H2O (962:71), RT, 3 days, water activity 0.71): Type A
- Result (form obtained, competitive slurry) ([2]; t-Butanol/H2O (980:35), RT, 1 day, water activity 0.37): Type A
- Result (form obtained, competitive slurry) ([2]; t-Butanol/H2O (985:30), RT, 3 days, water activity 0.56): Type A

From US12252469B2, “Crystalline forms of (E)-N-hydroxy-3-(1-(phenylsulfonyl)indolin-5-yl)acrylamide” (ANBOGEN THERAPEUTICS INC., priority 2023, dated 2025)
